Values quoted from earlier work in patent US20080187585A1, “Prolonged-Release Compositions Comprising Torasemide and a Matrix-Forming Polymer” (FERRER INTERNACIONAL S.A., priority 2004, published 2008).

Key:
[1] = not given; remark: listed apart in the source

Cc1cccc(Nc2ccncc2S(=O)(=O)NC(=O)NC(C)C)c1 [torasemide, Torasemide]
bioavailability (after oral administration): 80-90%
kinetics (oral administration): linear
elimination half-life (t1/2) (oral administration, man): 3 to 4 h
tmax (time to maximum plasma concentration) (oral administration, man): approximately 1 hour
time of maximal effects on urine and electrolytes excretions ([1]; after oral administration): approximately 2 hours
dose-response relationship for urinary volume ([1]; doses from 2.5 to 20 mg): linear dose-response relationship
